For 31 molecules, Ki results are on record in patent US9815796B2 (Merck Sharp & Dohme Corp., priority 2013, dated 2017).

The test has as its target human PDE2A1 (Homo sapiens (Human), UniProt O00408). The test is described as follows: IMAP FP PDE selectivity panel, human PDE2A1. As to conditions: Human PDE2, Lab B; read-out: Human PDE2 Ki (nM) - Lab B. Type of test: biochemical. The method, boiled down:
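IMAP FP format: substrate 50 nM FAM-cAMP plus 1000 nM cGMP, enzyme (insect-cell GST-tagged human PDE2A1) at ~20% conversion, 60 min reaction at room temperature. Apparent inhibition constants calculated from parallel/perpendicular fluorescence with KM 10,000 nM.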

One may read the Ki as a measure of affinity in units of concentration, obtained from inhibition or displacement.

Sequence of human PDE2A1 (O00408 other isoform, or with tags, fused parts or gaps): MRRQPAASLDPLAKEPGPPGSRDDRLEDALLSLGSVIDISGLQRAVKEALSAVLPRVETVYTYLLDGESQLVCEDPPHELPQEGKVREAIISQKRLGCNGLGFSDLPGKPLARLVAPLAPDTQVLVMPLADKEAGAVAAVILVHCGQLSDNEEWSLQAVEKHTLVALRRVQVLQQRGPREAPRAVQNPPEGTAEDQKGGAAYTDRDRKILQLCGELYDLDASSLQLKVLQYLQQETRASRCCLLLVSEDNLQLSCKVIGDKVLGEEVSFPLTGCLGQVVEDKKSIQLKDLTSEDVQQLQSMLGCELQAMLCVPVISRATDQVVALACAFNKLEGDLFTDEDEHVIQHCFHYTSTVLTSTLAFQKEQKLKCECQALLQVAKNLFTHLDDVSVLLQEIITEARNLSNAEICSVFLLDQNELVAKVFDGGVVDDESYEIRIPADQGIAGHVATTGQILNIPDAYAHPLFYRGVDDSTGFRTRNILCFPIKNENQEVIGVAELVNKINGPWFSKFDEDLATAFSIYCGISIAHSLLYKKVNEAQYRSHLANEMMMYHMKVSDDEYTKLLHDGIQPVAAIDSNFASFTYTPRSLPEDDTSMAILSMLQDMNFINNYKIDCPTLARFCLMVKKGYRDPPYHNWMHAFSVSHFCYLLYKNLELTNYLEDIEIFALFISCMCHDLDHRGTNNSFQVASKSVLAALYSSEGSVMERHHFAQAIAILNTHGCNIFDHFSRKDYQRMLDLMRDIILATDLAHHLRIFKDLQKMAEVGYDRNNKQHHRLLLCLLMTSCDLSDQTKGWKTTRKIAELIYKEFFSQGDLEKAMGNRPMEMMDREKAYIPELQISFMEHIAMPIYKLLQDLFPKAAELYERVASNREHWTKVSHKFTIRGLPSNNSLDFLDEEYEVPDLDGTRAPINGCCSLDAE

Consider `Cc1nc(C(=O)N[C@](C)(CO)c2ccc(C(F)(F)F)cc2Cl)cc(=O)[nH]1` [Example 640, N-{(1S)-1-[2-chloro-4-(trifluoromethyl)phenyl]-2-hydroxy-1-methylethyl}-2-methyl-6-oxo-1,6-dihydropyrimidine-4-carboxamide], for which the Ki was 4.4 nM.

As to `Cc1nc(C(=O)NC(C)(C)c2ccc(C(F)F)c(F)c2)cc(=O)[nH]1` [Example 654, N-{1-[4-(difluoromethyl)-3-fluorophenyl]-1-methylethyl}-2-methyl-6-oxo-1,6-dihydropyrimidine-4-carboxamide], the Ki is 72 nM. Then `CC(NC(=O)c1cc(=O)[nH]c(-c2ccccc2)n1)c1ccc(C2(C(F)(F)F)CC2)cc1` (single isomer, unassigned) [Example 691, (R)- or (S)-6-oxo-2-phenyl-N-(1-(4-(1-(trifluoromethyl)cyclopropyl)phenyl)-ethyl)-1,6-dihydropyrimidine-4-carboxamide], with 39 nM; and `O=C(N[C@@H](c1ccc(C2CC2)c(F)c1)C1CC1)c1cc(=O)[nH]c(-c2ccccc2)n1` [Example 546, N-[(R)-cyclopropyl(4-cyclopropyl-3-fluorophenyl)methyl]-6-oxo-2-phenyl-1,6-dihydropyrimidine-4-carboxamide], with 3.8 nM; and `Cc1nc(C(=O)N[C@@H](c2ccc(C(F)F)cc2)C(C)C)cc(=O)[nH]1` [Example 648, N-{(1R)-1-[4-(difluoromethyl)phenyl]-2-methylpropyl}-2-methyl-6-oxo-1,6-dihydropyrimidine-4-carboxamide], with 34 nM. For the molecule `CC(C)(C)C(NC(=O)c1cc(=O)[nH]c(-c2ncco2)n1)c1ccc(C(F)(F)F)cc1` (single isomer, unassigned) [Example 683, (S)- or (R)-N-(2,2-dimethyl-1-(4-(trifluoromethyl)phenyl)propyl)-2-(oxazol-2-yl)-6-oxo-1,6-dihydropyrimidine-4-carboxamide], the Ki was over 2960 nM. Turning to `CC(C)(C)c1ccc([C@H](NC(=O)c2cc(=O)[nH]c(-c3ncccn3)n2)C2(C)CC2)cc1` [Example 563, N-[(R)-(4-tert-butylphenyl)(1-methylcyclopropyl)methyl]-6-oxo-1,6-dihydro-2,2′-bipyrimidine-4-carboxamide], the Ki was 27 nM.

Take `Cc1nc(C(=O)NC2(c3ccc(OC(F)F)cc3)CC2)cc(=O)[nH]1` [Example 628, N-{1-[4-(difluoromethoxy)phenyl]cyclopropyl}-2-methyl-6-oxo-1,6-dihydropyrimidine-4-carboxamide]: the inhibitory constant (Ki) was found to be 87 nM. Then `CCC(C)(NC(=O)c1cc(=O)[nH]c(C)n1)c1ccc(C(F)(F)F)cc1` (single isomer, unassigned) [Example 668, (S)- or (R)-2-methyl-N-{1-methyl-1-[4-(trifluoromethyl)phenyl]propyl}-6-oxo-1,6-dihydropyrimidine-4-carboxamide], with 67 nM. Turning to `CC1(c2ccc(C(NC(=O)c3cc(=O)[nH]c(-c4ccccc4)n3)C(C)(C)C)cc2F)CC1` (single isomer, unassigned) [Example 715, (R)- or (S)-N-(1-(3-fluoro-4-(1-methylcyclopropyl)phenyl)-2,2-dimethylpropyl)-6-oxo-2-phenyl-1,6-dihydropyrimidine-4-carboxamide], the Ki turned out to be 3.8 nM. Consider `O=C(N[C@@H](c1ccc(C2CC2)cc1)C1CC1)c1cc(=O)[nH]c(-c2ccccc2)n1` [Example 544, N-[(R)-cyclopropyl(4-cyclopropylphenyl)methyl]-6-oxo-2-phenyl-1,6-dihydropyrimidine-4-carboxamide], for which the inhibition constant Ki turned out to be 2.4 nM.

As to `CC(C)(C)[C@@H](NC(=O)c1cc(=O)[nH]c(-c2ncccn2)n1)c1ccc(C(F)(F)F)c([N+](=O)[O-])c1` [Example 567, N-{(1R)-2,2-dimethyl-1-[3-nitro-4-(trifluoromethyl)phenyl]propyl}-6-oxo-1,6-dihydro-2,2′-bipyrimidine-4-carboxamide], the inhibition constant Ki came out at 49 nM. Then `CC(C)(C)[C@@H](NC(=O)c1cc(=O)[nH]c(-c2ncccn2)n1)c1ccc(S(F)(F)(F)(F)F)cc1` [Example 566, N-{(1R)-2,2-dimethyl-1-[4-(pentafluoro-λ^6-sulfanyl)phenyl]propyl}-6-oxo-1,6-dihydro-2,2′-bipyrimidine-4-carboxamide], with 4.3 nM. Take `CC(C)[C@@H](NC(=O)c1cc(=O)[nH]c(-c2ncccn2)n1)c1ccc(OC(F)(F)F)c(Br)c1` [Example 580, N-{(1R)-1-[3-bromo-4-(trifluoromethoxy)phenyl]-2-methylpropyl}-6-oxo-1,6-dihydro-2,2′-bipyrimidine-4-carboxamide]: the Ki came to 38 nM. As to `C[C@@H](NC(=O)c1cc(=O)[nH]c(-c2ccccc2)n1)c1cc(F)c(C(F)(F)F)cc1F` [Example 550, N-{(1R)-1-[2,5-difluoro-4-(trifluoromethyl)phenyl]ethyl}-6-oxo-2-phenyl-1,6-dihydropyrimidine-4-carboxamide], the Ki came to 17 nM. On to `Cc1nc(C(=O)NC2(c3ccc(C(F)F)c(F)c3)CC2)cc(=O)[nH]1` [Example 655, N-{l-[4-(difluoromethyl)-3-fluorophenyl]cyclopropyl}-2-methyl-6-oxo-1,6-dihydropyrimidine-4-carboxamide], for which the Ki was 64 nM.

`COc1cc(C(F)(F)F)ccc1C(C)(C)NC(=O)c1cc(=O)[nH]c(C)n1` [Example 594, N-{1-[2-methoxy-4-(trifluoromethyl)phenyl]-1-methylethyl}-2-methyl-6-oxo-1,6-dihydropyrimidine-4-carboxamide]: the Ki amounted to 120 nM. Then `C[C@@H](NC(=O)c1cc(=O)[nH]c(-c2ncccn2)n1)c1ccc2c(c1)OC(F)(F)O2` [Example 587, N-[(1R)-1-(2,2-difluoro-1,3-benzodioxol-5-yl)ethyl]-6-oxo-1,6-dihydro-2,2′-bipyrimidine-4-carboxamide], with 71 nM; and `CCc1nc(C(=O)N[C@](C)(CO)c2ccc(C(F)(F)F)cc2Cl)cc(=O)[nH]1` [Example 639, N-{(1S)-1-[2-chloro-4-(trifluoromethyl)phenyl]-2-hydroxy-1-methylethyl}-2-ethyl-6-oxo-1,6-dihydropyrimidine-4-carboxamide], with 2 nM.

On to `O=C(N[C@@H](c1ccc(OC(F)F)cc1)C1CC1)c1cc(=O)[nH]c(-c2ncccn2)n1` [Example 559, N-{(R)-cyclopropyl[4-(difluoromethoxy)phenyl]methyl}-6-oxo-1,6-dihydro-2,2′-bipyrimidine-4-carboxamide], for which the Ki is 128 nM. For `Cc1nc(C(=O)N[C@@H](c2ccc(OC(F)F)c(F)c2)C2CC2)cc(=O)[nH]1` [Example 629, N-{(R)-cyclopropyl[4-(difluoromethoxy)-3-fluorophenyl]methyl]-2-methyl-6-oxo-1,6-dihydropyrimidine-4-carboxamide], the inhibitory constant (Ki) was 53 nM. For `CC(C)(NC(=O)c1cc(=O)[nH]c(-c2ncccn2)n1)c1ccc(SC(F)(F)F)cc1` [Example 577, N-(1-methyl-1-{4-[(trifluoromethyl)sulfanyl]phenyl}ethyl)-6-oxo-1,6-dihydro-2,2′-bipyrimidine-4-carboxamide], the inhibition constant Ki came out at 287 nM. Turning to `CC(NC(=O)c1cc(=O)[nH]c(C2CC2)n1)c1ccc(C2(C(F)(F)F)CC2)cc1` (single isomer, unassigned) [Example 688, (S)- or (R)-2-cyclopropyl-6-oxo-N-(1-(4-(1-(trifluoromethyl)cyclopropyl)phenyl)-ethyl)-1,6-dihydropyrimidine-4-carboxamide], the inhibitory constant (Ki) was over 2960 nM. With `Cc1nc(C(=O)NC2(c3ccc4c(c3)OC(F)(F)O4)CC2)cc(=O)[nH]1` [Example 534, N-[1-(2,2-difluoro-1,3-benzodioxol-5-yl)cyclopropyl]-2-methyl-6-oxo-1,6-dihydropyrimidine-4-carboxamide], the Ki was 87 nM. For the molecule `CC(C)(C)[C@@H](NC(=O)c1cc(=O)[nH]c(-c2ncccn2)n1)c1ccc2c(c1)OC(F)(F)O2` [Example 586, N-[(1R)-1-(2,2-difluoro-1,3-benzodioxol-5-yl)-2,2-dimethylpropyl]-6-oxo-1,6-dihydro-2,2′-bipyrimidine-4-carboxamide], the Ki was 19 nM.

As to `CC(C)c1ccc(C2(NC(=O)c3cc(=O)[nH]c(-c4ncccn4)n3)CC2)cc1` [Example 576, N-{1-[4-(1-methylethyl)phenyl]cyclopropyl}-6-oxo-1,6-dihydro-2,2′-bipyrimidine-4-carboxamide], the inhibition constant Ki is 32 nM. As to `CCc1nc(C(=O)N[C@](C)(CO)c2ccc(C(F)(F)F)cc2)cc(=O)[nH]1` [Example 638, 2-ethyl-N-{(1S)-2-hydroxy-1-methyl-1-[4-(trifluoromethyl)phenyl]ethyl}-6-oxo-1,6-dihydropyrimidine-4-carboxamide], the inhibition constant Ki was found to be 12 nM. On to `Cc1nc(C(=O)N[C@@H](c2ccc3c(c2)OC(F)(F)O3)C2CC2)cc(=O)[nH]1` [Example 609, N-[(R)-cyclopropyl(2,2-difluoro-1,3-benzodioxol-5-yl)methyl]-2-methyl-6-oxo-1,6-dihydropyrimidine-4-carboxamide], for which the Ki came out at 94 nM. `Cc1nc(C(=O)NC2(c3ccc(C(F)(F)F)cc3Cl)CC2)cc(=O)[nH]1` [Example 637, N-{1-[2-chloro-4-(trifluoromethyl)phenyl]cyclopropyl}-2-methyl-6-oxo-1,6-dihydropyrimidine-4-carboxamide]: the inhibition constant Ki amounted to 16 nM. Then `CC(C)(C)[C@@H](NC(=O)c1cc(=O)[nH]c(-c2ccccc2)n1)c1ccc(OC(F)(F)F)c(F)c1` [Example 542, N-{(1R)-1-[3-fluoro-4-(trifluoromethoxy)phenyl]-2,2-dimethylpropyl}-6-oxo-2-phenyl-1,6-dihydropyrimidine-4-carboxamide], with 1.4 nM; and `CC(C)C(C)(NC(=O)c1cc(=O)[nH]c(-c2ncccn2)n1)c1ccc(S(F)(F)(F)(F)F)cc1` (stereo not shown) [Example 561, N-{1,2-dimethyl-1-[4-(pentafluoro-λ^6-sulfanyl)phenyl]propyl}-6-oxo-1,6-dihydro-2,2′-bipyrimidine-4-carboxamide], with 202 nM.
